Experimental data from US20230404985A1, “METHODS OF TREATING TUMORS AND CANCERS HAVING DYSREGULATED WNT SIGNALING PATHWAYS” (ICAHN SCHOOL OF MEDICINE AT MOUNT SINAI, priority 2020, published 2023).

Legend:
[1] = Single dose oral pharmacokinetics; assay type: in vivo, BALB/c mice; details: for half-life: 20 mg/kg oral gavage
Description: All animal experiments were carried out in accordance with ethical guidelines and approved by the Institutional Animal Care and Use Committee (IACUC), Biological Resource Center (BRC) A*STAR. BALB/c mice were purchased from InVivos, Singapore and fed with a standard laboratory diet and distilled water ad libitum. The animals were kept on a 12-hour light/dark cycle at 22±2° C. in individually ventilated caging systems with 50-65% humidity in the Biological Resource Centre, A*Star, Singapore. For single dose oral pharmacokinetic studies, female BALB/c mice (n=8, 6-8 weeks old) were used. The animals were fasted overnight and administered with a single oral dose (20 mg/kg) of WNTinib as prepared above. Blood samples were collected at pre-determined time points [0 (pre-dosing), 0.5, 1, 2, 4, 8, 12, and 24 hours] through the retro-orbital plexus (using micro hematocrit capillary tubes) into microvette CB300 K2E tubes. A sparse sampling technique (four mice per time point) was adopted during blood collection so that blood loss from each mouse was kept less than 10% of the total blood volume. Plasma was harvested by centrifuging the blood using a Sorvall Legend Micro 21R centrifuge (Thermo Scientific) at 3000 rpm for 15 minutes and stored at […] until further analysis. Mice were allowed to access feed 2 hours post-dosing and water ad libitum. Pharmacokinetic analysis of these compounds was performed using a Shimadzu UFLC prominence system (equipped with degasser (DGU-20A5), isopump (LC-20AD), autosampler (SIL-20AC HT) and column oven (CTO-20AC)) connected to a Sciex 4000 Q-Trap LC/MS/MS with heated electrospray ionization source. The primary stock solution (1.0 mg/mL) of WNTinib and Carbamazepine (Internal Standard, IS) were prepared in DMSO and used for subsequent dilutions. Required secondary and working stocks were prepared from the primary stocks using acetonitrile:water (75:25, v/v) as a diluent for the calibration curve (CC) and quality control (QC) studies. For the pharmacokinetic analysis, the mouse plasma was mixed with carbamazepine (50 ng/ml, final concentration) and extraction solvent (70% acetonitrile and 0.1% formic acid) and shaken for 10 minutes. After vigorous shaking, the samples were centrifuged at 14000 rpm for 20 minutes and the supernatant was collected. Chromatographic resolution of compound and the IS was achieved by injecting 1-2 μL of the processed sample on a Luna C18 100 Å column (50×2.0 mm, 5 μm; Phenomenex, USA) maintained at room temperature using a mobile phase consisting of 5 mM ammonium formate (buffered with 0.1% formic acid) and acetonitrile delivered at a flow-rate of 0.4 mL/minute. Quantitation was carried out using the multiple reaction monitoring of the transitions.

[2] = test system: MYC-Tp53 tumor organoid allografts; assay: MYC-Tp53 tumor organoid allografts; assay type: in vivo, C57BL/6J mice; details: 30 mg/kg daily oral gavage
Description: 300,000 cells per allograft were prepared in 8 mg/mL Matrigel. 6-8-week-old C57BL/6J mice were shaved the day prior to injection. A 26^5/8-gauge needle was used to implant organoids into the flank in 100 μL Matrigel. Tumor allografts were measured daily with calipers, and upon an average volumetric measurement of 100 mm^3, animals were randomized and drug dosing was started. Drugs were dosed daily at 30 mg/kg via oral gavage. Tumor allografts were also measured daily.
MYC-CTNNB1 tumor organoids were engrafted into C57BL/6 mice and treatment was started when tumor volume reached 100 mm^3.

[3] = test system: MYC-lucOS; CTNNB1 mutant HCC; assay: Hydrodynamic tail vein model of CTNNB1-mutated HCC, survival; assay type: in vivo, C57/BL6 mice; details: 5 days on/2 days off
Description: A sterile 0.9% NaCl solution/plasmid mix was prepared containing DNA—12 μg of pT3-EF1α-MYC-IRES-luciferase-OS (MYC-lucOS), 10 μg of pT3-N90-CTNNB1 (CTNNB1), and a 4:1 ratio of transposon to SB13 transposase-encoding plasmid. A volume equivalent to 10% of mouse body weight was injected through the tail vein using a 3 mL syringe with a 26-gauge needle (11). Animals were monitored for 6 days, and bioluminescent signal from tumors was visualized using an IVIS Spectrum system. Anesthetized mice were imaged 5 minutes after intraperitoneal injection of 100 mg/kg D-luciferin (Thermo Fisher Scientific). IVIS Living Image software was used to quantify luciferase signal, which was normalized by subtracting background signal. […] Oral drug treatment began in randomized arms seven days after plasmid injection. Kinase inhibitors were prepared as stated above, and WNTinib and sorafenib were dosed at concentrations of 20 mg/kg and 30 mg/kg, respectively. Drugs were administered following a 5 days on/2 days off treatment schedule. Body weights were recorded daily, and animals were monitored for signs of sickness, tumor palpability, and death. Sick animals were sacrificed according to the ISMMS IACUC guidelines.
Given that tumors with dysregulated WNT signaling are associated with tumor immune exclusion and overall are refractory to treatment with immune checkpoint inhibitors, the efficacy of WNTinib was tested in combination with immunotherapy. First, a hydrodynamic tail vein mouse model of MYC-lucOS, CTNNB1 mutant HCC, which is known to be refractory to treatment with anti-PD-1 was used (Ruiz de Galarreta et al., “O-Catenin Activation Promotes Immune Escape and Resistance to Anti-PD-1 Therapy in Hepatocellular Carcinoma,” Cancer Discov. 9(8):1124-1141 (2019), which is hereby incorporated by reference in its entirety). C57/BL6 mice were randomized into treatment groups using IVIS imaging to quantify tumor size based on luminescence signal intensity. After randomization, kinase inhibitors were dissolved in 25% cremaphor:ethanol in water and administered orally (30 mg/kg sorafenib, 20 mg/kg WNTinib) beginning 7 days after injection following a 5 days on/2 days off dosing schedule. Immunotherapy (anti-PD-1) was administered via intraperitoneal injection on days 11, 13, and 15 after injection at […].

pT367 EZH2 and pT71 ATF2 = details: WNTinib 1 μM, sorafenib 10 μM; for temporal inhibition of pT367 EZH2 and pT71 ATF2: MYC-CTNNB1 organoids, SB202190 10 μM, 48 hours time course; for modulation of pT367 EZH2 in the four tumor organoid models: 48 hours
Description: Tumor organoids were grown in 24 well plates and were collected in Cell Recovery Solution (Corning) after drug treatment. Tumor organoids were left to rotate at 4° C. for one hour in order to dissolve the Matrigel. Tumor organoids were spun down at 300 g at 4° C. for 5 minutes. Pellets were lysed in 2× Laemmli buffer (+4% 2-mercaptoethanol) by heating at 95° C. for 10 minutes followed by 5 seconds of sonication. SDS-PAGE was run using standard procedures.

CNC(=O)c1cc(Oc2ccc(NC(=O)Nc3ccc(C(F)(F)C(F)(F)F)cc3)c(F)c2)ccn1 [WNTinib, 4-(3-fluoro-4-(3-(4-(perfluoroethyl)phenyl)ureido)phenoxy)-N-methylpicolinamide]
detectable quantities of drug in blood plasma, time post dosing ([1]; 20 mg/kg oral): up to 72 hours | half-life ([1]; female, BALB/c, mouse, plasma): 9.38 h | concentration at 24 h ([1]; female, BALB/c, mouse, plasma, 20 mg/kg oral, read-out: concentration 24 hours after oral dosing): 7 µM | activity in MYC-Tp53 allografts [2]: inactive | remaining animals alive, time post final dosing ([3]; WNTinib 20 mg/kg): over 300 days | share of treatment arm that succumbed to death ([3]; WNTinib 20 mg/kg): 40% | survival benefit ([3]; WNTinib 20 mg/kg): significant survival benefit | temporal inhibition of pT367 EZH2 and pT71 ATF2 (pT367 EZH2 and pT71 ATF2): delayed, but durable inhibition up to 48 hours | modulation of pT367 EZH2 in the four tumor organoid models (pT367 EZH2 and pT71 ATF2): inhibited by WNTinib in the MYC-CTNNB1 model

CNC(=O)c1cc(Oc2ccc(NC(=O)Nc3ccc(Cl)c(C(F)(F)F)c3)cc2)ccn1 [sorafenib, reference compound]
half-life ([1]; female, BALB/c, mouse, plasma): 8 h | activity in MYC-Tp53 allografts [2]: better activity | survival benefit ([3]; sorafenib 30 mg/kg): 7.5 days | temporal inhibition of pT367 EZH2 and pT71 ATF2 (pT367 EZH2 and pT71 ATF2): transient inhibition | modulation of pT367 EZH2 in the four tumor organoid models (pT367 EZH2 and pT71 ATF2): induced pT367 across several organoid models
